Laboratory results taken from US20250319088A1, “DAPRODUSTAT FOR REDUCING FATIGUE IN A SUBJECT WITH ANEMIA ASSOCIATED WITH CHRONIC KIDNEY DISEASE” (GlaxoSmithKline Intellectual Property (No.2) Limited, priority 2021, published 2025).

Legend:
[1] = system: non-dialysis patient with anaemia associated with chronic kidney disease; experiment: SF-36 Vitality Domain score in 28 week randomized double blind placebo controlled clinical study; format: in vivo, human; conditions: for Adjusted mean SF-36 Vitality Change from Baseline at Week 28 (SE): 0-100 score; for adjusted mean treatment difference (CI) in SF-36 Vitality: dapro-placebo
Experimental: (§1) A 28 week randomized double blind placebo controlled clinical study in non-dialysis patient with anaemia associated with chronic kidney disease has been conducted. Participants were assessed for eligibility for inclusion in the study on the basis of the following (non-exhaustive) inclusion and exclusion criteria.
(§2) Enrolled participants were randomized 1:1 to receive either daprodustat or matching placebo tablets administered once daily.
(§3) The treatment doses for participants in both treatment arms were titrated based on haemoglobin concentration as assessed by HemoCue. Haemoglobin concentration by HemoCue is assessed on day 1, and at weeks 2, 4, 8, 12, 16, 20, 24 and 28. The available dose steps of daprodustat and placebo were 1 mg, 2 mg, 4 mg, 6, mg, 8 mg, 10 mg, 12 mg and 16 mg. Dose modifications for participants followed the dose adjustment algorithm to achieve and maintain haemoglobin concentration within the target range of 11.0 to 12.0 g/dL outlined in Table 2.
(§4) The Short form SF-36 questionnaire was completed by participants on day 1 and on weeks 8, 12 and 28, and the CKD-AQ questionnaire was completed by participants on week −2 (i.e. during screening period) and on day 1 and weeks 8, 12 and 28.
(§5) • Mean change in the SF-36 Vitality Domain score (0-100) between baseline and week 28. This was a principal secondary endpoint and the study was appropriately powered for this endpoint. • Mean change from baseline by domain and overall symptoms score on the CKD-AQ (the study was not powered for this secondary endpoint, so only nominal significance can be assessed).
(§6) For the endpoints of mean change in haemoglobin and SF-36 Vitality Domain, an analysis of covariance model was used including covariates of baseline level, treatment, and region. The model provided point estimate and two-sided 95% CI for the treatment effect, together with a one-sided p-value. Significance was determined if the one-sided p-value was less than 0.025. The analysis population for the haemoglobin and SF-36 Vitality Domain endpoints was the intent-to-treat population. The analysis population for the Chronic Kidney Disease Anemia Questionnaire Tired/Low Energy/Weak Domain endpoint was the on treatment population and analysis was based on a mixed model repeated measures model fitted from baseline up to Week 28 with factors for treatment, time, region, baseline value, baseline value by time, and treatment by time interactions.
For the endpoints of mean change in haemoglobin and SF-36 Vitality Domain by subgroup, a similar model to that described above was used, adding covariates for subgroup and subgroup by treatment interaction term. The analysis population for these endpoints was the intent-to-treat population.
For endpoints of difference in SF-36 Vitality domain response rate, a Cochran-Mantel-Haenszel chi-squared test was used adjusting for treatment, baseline level, and region, to make comparisons between the treatment groups. Significance was determined if the one-sided p-value was less than 0.025. The analysis population for these endpoints was the intent-to-treat population.

[2] = system: non-dialysis patient with anaemia associated with chronic kidney disease; experiment: CKD-AQ Tired/Low Energy/Weak Domain score in 28 week placebo controlled clinical study; format: in vivo, human; conditions: on treatment population
Experimental: as §1, §2, §4, §5, §6
A simple linear transformation was used to recalibrate the items to a 0-100 scale as outlined in Tables 11 and 12. […]

[3] = system: non-dialysis patient with anaemia associated with chronic kidney disease; experiment: Haemoglobin concentration change from baseline to evaluation period in 28 week placebo controlled clinical study; format: in vivo, human
Experimental: as §1, §2, §3
The primary objective of the trial was to compare the efficacy of daprodustat to placebo on mean change in haemoglobin concentration. The primary endpoint was the mean change in haemoglobin concentration between baseline (day 1) and the evaluation period (mean over week 24 to week 28 inclusive).
For the endpoints of mean change in haemoglobin and SF-36 Vitality Domain, an analysis of covariance model was used including covariates of baseline level, treatment, and region. The model provided point estimate and two-sided 95% CI for the treatment effect, together with a one-sided p-value. Significance was determined if the one-sided p-value was less than 0.025. The analysis population for the haemoglobin and SF-36 Vitality Domain endpoints was the intent-to-treat population. […]

[4] = system: non-dialysis patient with anaemia associated with chronic kidney disease; experiment: hsCRP levels by baseline hsCRP quartile in 28 week placebo controlled clinical study; format: in vivo, human
Experimental: as §1
In addition to analysis of the intention to treat population, several sub-group analyses were pre-specified including subgroups with baseline hsCRP quartiles of <0.9 mg/L, 0.9 to <2.6 mg/L, 2.60 to <6.60 mg/L and ≥6.60 mg/L.
The changes in hsCRP levels in each quartile are given below in Tables 5 to 8.

[5] = system: patients with type 2 diabetes mellitus, non-dialysis dependent chronic kidney disease and anemia; conditions: at 25 weeks, cited from earlier work

## O=C(O)CNC(=O)C1C(=O)N(C2CCCCC2)C(=O)N(C2CCCCC2)C1=O [Daprodustat, N-((1,3-dicyclohexylhexahydro-2,4,6-trioxopyrimidin-5-yl)carbonyl)glycine]
[1]; at week 12
  SF-36 vitality domain scores for daprodustat and placebo: not distinguishable
[1]; baseline to week 28
  adjusted difference in response rate (dapro-placebo), ≥6.0 point SF-36 Vitality increase: 0.13 (0.04, 0.22)
[1]; baseline, intention to treat population, includes imputed values
  Baseline SF-36 Vitality Sub-score Mean (SD): 50.74 (21.175)
[1]; intention to treat population
  Adjusted Mean Treatment Difference (dapro − placebo) in SF-36 Vitality change from baseline at week 28: 5.36
  Adjusted mean SF-36 Vitality Change from Baseline at Week 28 (SE): 7.29 (1.121)
[1]; intention to treat population, listed as daprodustat
  Adjusted mean SF-36 Vitality Change from Baseline at Week 28 (SE): 7.29
[1]; responder rate, intention to treat population
  participants with a ≥6.0 point difference from baseline to week 28 in the SF-36 Vitality Sub-score: 58%
[1]; subgroup baseline hsCRP 0.9 to <2.6 mg/L
  adjusted mean treatment difference (CI) in SF-36 Vitality: 1.09 (−4.86, 7.04)
[1]; subgroup baseline hsCRP 0.9 to <2.6 mg/L, week 28
  adjusted mean SF-36 Vitality Change: 4.98
[1]; subgroup baseline hsCRP 2.60 to <6.60 mg/L
  adjusted mean treatment difference (CI) in SF-36 Vitality: 4.38 (−1.77, 10.53)
[1]; subgroup baseline hsCRP 2.60 to <6.60 mg/L, week 28
  adjusted mean SF-36 Vitality Change: 7.92
[1]; subgroup baseline hsCRP <0.9 mg/L
  adjusted mean treatment difference (CI) in SF-36 Vitality: 10.0 (3.53, 16.47)
[1]; subgroup baseline hsCRP <0.9 mg/L, week 28
  adjusted mean SF-36 Vitality Change: 9.84
[1]; subgroup baseline hsCRP ≥6.60 mg/L
  adjusted mean treatment difference (CI) in SF-36 Vitality: 7.71 (1.62, 13.80)
[1]; subgroup baseline hsCRP ≥6.60 mg/L, listed as daprodustat
  adjusted mean treatment difference (CI) in SF-36 Vitality: 7.71
[1]; subgroup baseline hsCRP ≥6.60 mg/L, week 28
  adjusted mean SF-36 Vitality Change: 8.24
[1]; subjects having baseline haemoglobin <9 g/dL
  adjusted mean treatment difference in SF-36 Vitality domain subscore: 7.44
[1]; subjects having baseline haemoglobin >11 g/dL, small number of subjects
  adjusted mean treatment difference in SF-36 Vitality: −7.13
[1]; subjects having baseline haemoglobin ≥9 to <10 g/dL
  adjusted mean treatment difference in SF-36 Vitality domain subscore: 5.25
[1]; subjects having baseline haemoglobin ≥10 to ≤11 g/dL
  adjusted mean treatment difference in SF-36 Vitality domain subscore: 6.01
[1]; week 28, intention to treat population, includes imputed values
  Week 28 SF-36 Vitality Sub-score Mean (SD): 58.40 (18.312)
[2]; baseline to week 28
  Adjusted Mean Treatment Difference (dapro − placebo) on CKD-AQ Tired/Low Energy/Weak Domain: 5.91
[2]
  Adjusted mean change from baseline to week 28 on CKD-AQ Tired/Low Energy/Weak Domain (SE): 8.72 (1.086)
[2]; listed as daprodustat
  Adjusted mean change from baseline to week 28 on CKD-AQ Tired/Low Energy/Weak Domain (SE): 8.72
[3]; one sided superiority p-value <0.0001
  haemoglobin concentration compared to placebo over the treatment period: significantly increased haemoglobin concentration
[3]; subjects having baseline haemoglobin >11 g/dL
  adjusted mean treatment difference in haemoglobin concentration: 0.76 g/dL
[3]; subjects having baseline hsCRP ≥6.60 mg/L
  adjusted mean treatment difference in haemoglobin concentration: 1.25 g/dL
[4]; baseline hsCRP 0.9-<2.60 mg/L, Baseline
  Geometric mean hsCRP: 1.46 mg/L
[4]; baseline hsCRP 0.9-<2.60 mg/L, Day 1
  Geometric mean hsCRP: 1.46 mg/L
[4]; baseline hsCRP 0.9-<2.60 mg/L, End of Treatment
  Geometric mean hsCRP: 2.55 mg/L
[4]; baseline hsCRP 0.9-<2.60 mg/L, Week 28
  Geometric mean hsCRP: 2.55 mg/L
[4]; baseline hsCRP 2.60-<6.60 mg/L, Baseline
  Geometric mean hsCRP: 3.93 mg/L
[4]; baseline hsCRP 2.60-<6.60 mg/L, Day 1
  Geometric mean hsCRP: 3.93 mg/L
[4]; baseline hsCRP 2.60-<6.60 mg/L, End of Treatment
  Geometric mean hsCRP: 3.83 mg/L
[4]; baseline hsCRP 2.60-<6.60 mg/L, Week 28
  Geometric mean hsCRP: 3.85 mg/L
[4]; baseline hsCRP <0.9 mg/L, Baseline
  Geometric mean hsCRP: 0.48 mg/L
[4]; baseline hsCRP <0.9 mg/L, Day 1
  Geometric mean hsCRP: 0.48 mg/L
[4]; baseline hsCRP <0.9 mg/L, End of Treatment
  Geometric mean hsCRP: 0.86 mg/L
[4]; baseline hsCRP <0.9 mg/L, Week 28
  Geometric mean hsCRP: 0.85 mg/L
[4]; baseline hsCRP ≥6.60 mg/L, Baseline
  Geometric mean hsCRP: 16.96 mg/L
[4]; baseline hsCRP ≥6.60 mg/L, Day 1
  Geometric mean hsCRP: 16.79 mg/L
[4]; baseline hsCRP ≥6.60 mg/L, End of Treatment
  Geometric mean hsCRP: 8.92 mg/L
[4]; baseline hsCRP ≥6.60 mg/L, Week 28
  Geometric mean hsCRP: 9.04 mg/L
[4]; subjects with high baseline hsCRP (≥6.60 mg/L), similar reductions in placebo group
  change in hsCRP levels: large reductions in hsCRP levels

## darbepoetin alfa
[5]; versus 4.2±19 placebo, P=0.196
  mean change in SF-36 Vitality domain: 5.3±20
[5]; versus 49% placebo, nominal P=0.027
  percentage of responders having a ≥5-point increase in SF-36 Vitality domain: 54%
